Assay results published in paper PMC4911353, “Pharmacologic Inhibition of Host Phosphodiesterase-4 Improves Isoniazid-Mediated Clearance of Mycobacterium tuberculosis” (Frontiers in Immunology, 2016).

Legend:
[1] = tested on: Mycobacterium tuberculosis CDC1551; assay type: in vivo; details: B6D2F1 mice, 50 mg/kg daily
lung granulomas = experiment: Histology and morphometric measurement of lung granulomas in Mtb-infected mice; assay type: in vivo
Protocol: Formalin-fixed lung tissues of Mtb-infected mice were paraffin-embedded, cut into […] sections, and stained with hematoxylin and eosin (H&E) or acid fast staining by Ziehl–Neelsen (ZN) method to visualize host cells and Mtb, respectively (IDEXX-RADIL Laboratories Inc., MO, USA) as described in Ref. ([11]). Stained sections were photographed in a Nikon Microphot-FX photomicrographic system and analyzed with NIS-Elements F3.0 software (Nikon Instruments Inc., NY, USA). Lung granuloma size was morphometrically measured using PathScan Enabler IV scanner (Meyer Instruments, Houston, TX, USA) and SigmaScan Pro software (Systat Software, Inc., CA, USA). Histopathologic analysis and morphometry were performed by an experienced pathologist blinded to the sample identity.

Mtb = details: mouse pulmonary TB model; cited from earlier work

Structure (SMILES)	Change in lung CFUs from 84 to 112 days postinfection [1]	Lesion area (granuloma size) versus untreated mice (lung granulomas; 28 days postinfection)	Granuloma size versus untreated group (lung granulomas; 112 days postinfection)	Impact on antibiotic-mediated bacillary clearance (Mtb)
NNC(=O)c1ccncc1 [INH, isoniazid]	no significant decline	significant differences	significant reduction	
COc1ccc([C@]2(C#N)CC[C@@H](C(=O)O)CC2)cc1OC1CCCC1 [cilomilast]				no impact
COc1ccc(C2CNC(=O)C2)cc1OC1CCCC1 (centres unmarked) [rolipram]				no impact
